Assay results taken from patent US11723929B2, “Methods of improving cell-based therapy” (THE REGENTS OF THE UNIVERSITY OF CALIFORNIA, priority 2017, dated 2023).

Columns and labels:
[1] = system: COX-1; experiment: Inhibitory activity against COX-1 (Table 4); type: biochemical; set-up: dose or concentration left out as unconfirmed
[2] = target: T1, sEH (Homo sapiens (Human), UniProt P34913); experiment: Inhibitory activity against sEH (Table 4); settings: read-out: sEH
[3] = Exp. logP (Table 3); type: physicochemical
[4] = PTZ Induced Seizure Model; Example 52 and FIG. 7 of WO 2015/148954; cited from earlier work
[5] = system: PDE4; experiment: PDE4 inhibition by cAMP increase in live HEK cells transfected with a PKA biosensor; type: cell-based, human; settings: relative to Rolipram at 1 μM
[6] = system: murine myocardial infarction (MI) model; experiment: Echocardiography, left ventricular fractional shortening after MI; type: in vivo, mouse
Procedure: The animals were followed for a period of three weeks at which time repeat echocardiograms were performed.
An increase in hiPSC-CMs engraftment translated into a significant improvement in cardiac function.

[7] = cited from earlier work
[8] = system: murine myocardial infarction (MI) model; experiment: Flow cytometric quantification of GFP+ hiPSC-CMs in the post MI model; settings: NSG mice post MI with transplanted hiPSC-CMs, with or without TPPU; after 4 weeks
[9] = system: murine myocardial infarction (MI) model; experiment: In vivo bioluminescence imaging of transplanted hiPSC-CMs in the post MI model; settings: NSG mice post MI with transplanted hiPSC-CMs, with or without TPPU 15 mg/L in drinking water; BLI at 3 and 4 weeks
[10] = target: T1, sEH; experiment: Testing as inhibitor of sEH; type: biochemical
Source text: Derivatives of urea are transition state mimetics that form a group of sEH inhibitors. […] Any particular urea derivative or other compound can be easily tested for its ability to inhibit sEH by standard assays, such as those discussed herein. The production and testing of urea and carbamate derivatives as sEH inhibitors is set forth in detail in, for example, Morisseau et al., Proc Natl Acad Sci (USA) 96:8849-8854 (1999).
(§1) Both the 1- and the 2-adamantyl ureas have been tested and have about the same high activity as an inhibitor of sEH.
One category of these inhibitors comprises inhibitors that mimic the substrate for the enzyme. The lipid alkoxides (e.g., the 9-methoxide of stearic acid) are an exemplar of this group of inhibitors.

[11] = Metabolic stability; type: in vitro ADME
Source text: as §1

| SMILES | IC50 [2] | COX-1 (% inhibition) [1] | also measured |
| --- | --- | --- | --- |
| NS(=O)(=O)c1ccc(-n2nc(NC(=O)Nc3cccc(C(F)(F)F)c3)cc2-c2ccccc2)cc1 [compound 2121, 4-{5-Phenyl-3-[3-(3-trifluoromethyl-phenyl)-ureido]-pyrazol-1-yl}-benzenesulfonamide] | 88 ± 5 nM | 33.9 % inhibition | – |
| CS(=O)(=O)c1ccc(-n2nc(CCCNC(=O)Nc3cccc(C(F)(F)F)c3)cc2-c2ccccc2)cc1 [compound 1862, 1-{3-[1-(4-Methanesulfonyl-phenyl)-5-phenyl-1H-pyrazol-3-yl]-propyl}-3-(3-trifluoromethyl-phenyl)-urea] | 3.4 ± 0.2 nM | 6.4 % inhibition | – |
| NS(=O)(=O)c1ccc(-n2nc(CNC(=O)Nc3cccc(C(F)(F)F)c3)cc2-c2ccccc2)cc1 [compound 2107, 4-{5-Phenyl-3-[3-(3-trifluoromethyl-phenyl)-ureidomethyl]-pyrazol-1-yl}-benzenesulfonamide] | 84 ± 6 nM | 16.9 % inhibition | – |
| CC(C)(C)c1cc(CNC(=O)Nc2cccc(C(F)(F)F)c2)nn1-c1ccc(S(C)(=O)=O)cc1 [compound 2106, 1-[5-tert-Butyl-1-(4-methanesulfonyl-phenyl)-1H-pyrazol-3-ylmethyl]-3-(3-trifluoromethyl-phenyl)-urea] | 32 ± 3 nM | 2.4 % inhibition | – |
| NS(=O)(=O)c1ccc(-n2nc(CCCNC(=O)NC3CCCCCC3)cc2-c2ccccc2)cc1 [compound 2247, 4-{3-[3-(3-Cycloheptyl-ureido)-propyl]-5-phenyl-pyrazol-1-yl}-benzenesulfonamide] | 0.5 ± 0.1 nM | 10.2 % inhibition | – |
| O=C(Nc1ccc(C(F)(F)F)cc1)NC1CCN(C(=O)C2(C(F)(F)F)CC2)CC1 | – | – | logP [3]: 4.63 |
| O=C(Nc1ccc(OC(F)(F)F)c(F)c1)NC1CCN(C(=O)C2CCOCC2)CC1 [1-(3-fluoro-4-(trifluoromethoxy)phenyl)-3-(1-(tetrahydro-2H-pyran-4-carbo-nyl)piperidin-4-yl)urea] | – | – | crossing of the blood-brain barrier [4]: cross the blood-brain barrier |
| CCC(=O)N1CCC(NC(=O)Nc2ccc(OC(F)(F)F)cc2)CC1 [TPPU] | – | – | cAMP increase (% of Rolipram) [5]: 40 ± 10 % of Rolipram; improvement of FS with both sEHI and cells ([6]; MI+hiPSC-CM+TPPU, highest compared to other treatment groups): 40%; left ventricular fractional shortening (FS), MI+hiPSC-CM+TPPU group ([6]; after three weeks of TPPU treatment (before treatment 44±6%)): 61±2%; fractional shortening (FS), MI+TPPU group ([6]; post treatment): 55±0.7%; fractional shortening (FS), MI+TPPU+Vehicle (PBS injection) group ([6]; post treatment): 51±2%; half-life ([7]; compared with many previous compounds (ref. 50)): relatively longer half-life; area under the curve ([7]; in vivo): high area under the curve values; number of GFP+ hiPSC-CMs by flow cytometry [8]: 9.9±0.5%; BLI signal of transplanted GFP+ hiPSC-CMs [9]: 7.4×10^6±1.7×10^6 photons/s/cm^2/sr |
| CS(=O)(=O)c1ccc(-n2nc(CNC(=O)Nc3cccc(C(F)(F)F)c3)cc2-c2ccccc2)cc1 [compound 1861, 1-[1-(4-Methanesulfonyl-phenyl)-5-phenyl-1H-pyrazol-3-ylmethyl]-3-(3-trifluoromethyl-phenyl)-urea] | 72 ± 8 nM | 7.8 % inhibition | – |
| NS(=O)(=O)c1ccc(-n2nc(CCCNC(=O)Nc3ccccc3)cc2-c2ccccc2)cc1 [compound 2245, 4-{5-Phenyl-3-[3-(3-phenyl-ureido)-propyl]-pyrazol-1-yl}-benzenesulfonamide] | 0.8 ± 0.1 nM | 15.8 % inhibition | – |
| CS(=O)(=O)c1ccc(-n2nc(CNC(=O)NC34CC5CC(CC(C5)C3)C4)cc2-c2ccccc2)cc1 [compound 1860, 1-Adamantan-1-yl-3-[1-(4-methanesulfonyl-phenyl)-5-phenyl-1H-pyrazol-3-ylmethyl]-urea] | 25 ± 1 nM | 12.7 % inhibition | – |
| NS(=O)(=O)c1ccc(-n2nc(CCCNC(=O)Nc3cccc(C(F)(F)F)c3)cc2-c2ccccc2)cc1 [compound 2246, 4-(5-Phenyl-3-{3-[3-(3-trifluoromethyl-phenyl)-ureido]-propyl}-pyrazol-1-yl)-benzenesulfonamide] | 4.1 ± 0.4 nM | 27.2 % inhibition | – |
| Cc1ccc(-c2cc(CCCNC(=O)Nc3cccc(C(F)(F)F)c3)nn2-c2ccc(S(N)(=O)=O)cc2)cc1 [compound 2152, 4-(5-p-Tolyl-3-{3-[3-(3-trifluoromethyl-phenyl)-ureido]-propyl}-pyrazol-1-yl)-benzenesulfonamide] | 10 ± 1 nM | 12.1 % inhibition | – |
| CCCCCCCCCCCCNC(=O)NC12CC3CC(CC(C3)C1)C2 [ADU, N-Adamantyl-N′-dodecyl urea] | – | – | activity as inhibitor of sEH [10]: particularly high activity; metabolic stability [11]: metabolically stable |

Continued, in another order:

| IC50 [2] | SMILES | COX-1 (% inhibition) [1] | also measured |
| --- | --- | --- | --- |
| 0.8 ± 0.1 nM | NS(=O)(=O)c1ccc(-n2nc(CCCNC(=O)Nc3ccc(Cl)cc3)cc2-c2ccccc2)cc1 [compound 2327, 4-(3-{3-[3-(4-Chloro-phenyl)-ureido]-propyl}-5-phenyl-pyrazol-1-yl)-benzenesulfonamide] | 15.2 % inhibition | – |
| 47 ± 4 nM | CS(=O)(=O)c1ccc(-n2nc(CNC(=O)Nc3ccccc3)cc2-c2ccccc2)cc1 [compound 2322, 1-[1-(4-Methanesulfonyl-phenyl)-5-phenyl-1H-pyrazol-3-ylmethyl]-3-phenyl-urea] | – | – |
| 110 ± 5 nM | CS(=O)(=O)c1ccc(-n2nc(CNC(=O)Nc3ccc(C(F)(F)F)cc3)cc2-c2ccccc2)cc1 [compound 2324, 1-[1-(4-Methanesulfonyl-phenyl)-5-phenyl-1H-pyrazol-3-ylmethyl]-3-(4-trifluoromethyl-phenyl)-urea] | 10.7 % inhibition | – |
| 0.5 ± 0.1 nM | NS(=O)(=O)c1ccc(-n2nc(CCCNC(=O)NC34CC5CC(CC(C5)C3)C4)cc2-c2ccccc2)cc1 [compound 2326, 4-{3-[3-(3-Adamantan-1-yl-ureido)-propyl]-5-phenyl-pyrazol-1-yl}-benzenesulfonamide] | 6.7 % inhibition | – |
| 0.5 ± 0.1 nM | NS(=O)(=O)c1ccc(-n2nc(CCCNC(=O)Nc3ccc(OC(F)(F)F)cc3)cc2-c2ccccc2)cc1 [compound 2329, 4-(5-Phenyl-3-{3-[3-(4-trifluoromethoxy-phenyl)-ureido]-propyl}-pyrazol-1-yl)-benzenesulfonamide] | 13.8 % inhibition | – |
| 1550 ± 70 nM | CC(C)c1cccc(C(C)C)c1NC(=O)NCCCc1cc(-c2ccccc2)n(-c2ccc(S(N)(=O)=O)cc2)n1 [compound 2325, 4-(3-{3-[3-(2,6-Diisopropyl-phenyl)-ureido]-propyl}-5-phenyl-pyrazol-1-yl)-benzenesulfonamide] | 6.2 % inhibition | – |
| 2.6 ± 0.3 nM | CS(=O)(=O)c1ccc(-n2nc(CNC(=O)NC3CCCCCC3)cc2-c2ccccc2)cc1 [compound 2321, 1-Cycloheptyl-3-[1-(4-methanesulfonyl-phenyl)-5-phenyl-1H-pyrazol-3-ylmethyl]-urea] | 3.4 % inhibition | – |
| 0.9 ± 0.1 nM | NS(=O)(=O)c1ccc(-n2nc(CCCNC(=O)Nc3ccc(C(F)(F)F)cc3)cc2-c2ccccc2)cc1 [compound 2328, 4-(5-Phenyl-3-{3-[3-(4-trifluoromethyl-phenyl)-ureido]-propyl}-pyrazol-1-yl)-benzenesulfonamide] | 22.7 % inhibition | – |
| 6 ± 0.5 nM | CS(=O)(=O)c1ccc(-n2nc(CNC(=O)Nc3ccc(OC(F)(F)F)cc3)cc2-c2ccccc2)cc1 [compound 2323, 1-[1-(4-Methanesulfonyl-phenyl)-5-phenyl-1H-pyrazol-3-ylmethyl]-3-(4-trifluoromethoxy-phenyl)-urea] | 10.4 % inhibition | – |
| 26 ± 3 nM | NS(=O)(=O)c1ccc(-n2nc(CCNC(=O)Nc3cccc(C(F)(F)F)c3)cc2-c2ccccc2)cc1 [compound 2313, 4-(5-Phenyl-3-{2-[3-(3-trifluoromethyl-phenyl)-ureido]-ethyl}-pyrazol-1-yl)-benzenesulfonamide] | 22.0 % inhibition | – |
